Data on seven molecules can be found in paper PMC12567082, “Silver(I) Complexes Bearing S-Alkyl Thiosalicylic Acid Derivatives: DNA/BSA Binding and Antitumor Activity In Vitro and In Vivo” (Pharmaceutics, 2025).

In general, IC50 refers to the concentration at which inhibition is half-maximal. Low readings indicate greater potency, high ones weaker potency.

For data set [1], the system named is human breast cancer (MDA-MB-468). The data set is described as follows: MTT assay MDA-MB-468. Type of data set: cell-based. The protocol: (§1) Mouse breast cancer (4T1), human breast cancer (MDA-MB-468), mouse colon cancer (CT26), human colon cancer (HCT-116), mouse lung cancer (LLC1), human lung cancer (A549), mouse mesenchymal stem cells (mMSC), and human fibroblast cell lines (MRC-5) were used in this study and were consistently cultured in complete Dulbecco’s Modified Eagle Medium (DMEM) (Sigma-Aldrich, St. Louis, MO, USA) in incubator (5% CO2) under standard conditions. Complete DMEM was Dulbecco’s Modified Eagle Medium supplemented with 10% fetal bovine serum (FBS), 1 mmol/L penicillin–streptomycin, 1 mmol/L mixed nonessential amino acids, and 2 mmol/L L-glutamine (Sigma-Aldrich, St. Louis, MO, USA). All cancer cell lines and MRC-5 cell line were obtained from American Type Culture Collection (ATCC, Manassas, VA, USA), but mMSC was manufactured by Gibco (Middlesex County, MA, USA).
(§2) In 96-well microplates, we seeded cancer and non-cancer cells, more exactly 5 × 10^3 cells per well in 100 μL of complete DMEM (Sigma-Aldrich, St. Louis, MO, USA). […] Tested concentration range for all metal-based substances was 3.9–500 μM. After incubation with MTT solution (5 mg/mL; pH 7.2) for 4 h, optical density was determined using Zenyth 3100 microplate multimode detector (Salzburg, Austria). All experiments were performed three times, each in triplicate, and the IC50 values as well as selectivity indexes (IC50 for mMSC or MRC-5/IC50 for mouse or human cancer cells) were calculated.
(In general: Tetrazolium assays rely on reduction of a dye to a coloured formazan, in cell work by metabolically active cells.)

The next data set relates to mouse lung cancer (LLC1). The experiment in a line: MTT assay LLC1. Type of data set: cell-based. The protocol: as §1, §2
The subject of data set [2] is mouse mesenchymal stem cells (mMSC). The experiment in a line: MTT assay mMSC. Type of data set: cell-based. The note with it: 24 h. The protocol:
as §1, §2

In data set [3] the test system is Mouse breast cancer (4T1). The experiment in a line: MTT assay 4T1. Type of data set: cell-based. As for the experimental part:
as §1, §2

Another data set has as its system 4T1 mammary tumors. The data set is described as follows: Breast cancer development in vivo (orthotopic 4T1). Particulars: 6 mg/kg i.p., five single doses every third day, after day 18. More on the design: species or system BALB/C female mice. The protocol:
(§3) Ethics Committee of the Faculty of Medical Sciences of the University of Kragujevac, Serbia, approved all experiments (01-5301/11). ARRIVE guidelines and EU Directive 2010/63/EU for animal experiments were followed. Experimental animals, BALB/C female mice (8–10 weeks old), were housed under standard conditions (temperature-controlled environment, a 12 h light–dark cycle, fed ad libitum, and observed daily) throughout whole duration of experiment. Animals were inoculated with 4T1 cells (3 × 10^4) into the fourth mammary fat pad as previously described. Animals were randomly assigned to experimental or control groups, and after palpable tumors were detected, the pharmacological treatments were started. Female BALB/C mice intraperitoneally received either C3 (3 mg/kg), C3 (6 mg/kg), CDDP (6 mg/kg), or vehicle in distilled water with 0.05% DMSO (Sigma-Aldrich, St. Louis, MO, USA) (untreated group) in five single doses every third day (8 animals per group). Using electronic calipers (Moore and Wright, Sheffield, UK), the sizes of primary 4T1 mammary tumors were morphometrically evaluated. On the 30th day of experiment, animals were sacrificed, blood was collected (for determination of serum levels of ALT, AST, urea, and creatinine), and tissue sections (liver and kidney) were stained with H&E for further analysis. Liver or kidney sections were analyzed by two observers, and the injury levels were determined as previously reported.

Another data set relates to BALB/C female mice. The data set is described as follows: In vivo toxicity (serum biochemistry, liver and kidney histology). Particulars: 6 mg/kg, H&E, day 30. The protocol:
as §3

Data set [4] relates to mouse colon cancer (CT26). The data set is described as follows: MTT assay CT26. The data set is classed as cell-based. As for the experimental part:
as §1, §2

Another data set concerns human lung cancer (A549). The experiment in a line: MTT assay A549. Type of data set: cell-based. The protocol:
as §1, §2

For data set [5], the system named is human fibroblast cell lines (MRC-5). The data set is described as follows: MTT assay MRC-5. Type of data set: cell-based. As for the experimental part:
as §1, §2

For data set [6], the system named is human colon cancer (HCT-116). The experiment in a line: MTT assay HCT116. The data set is classed as cell-based. The protocol: as §1, §2
Another data set has as its target T1, BSA (Bos taurus, UniProt P02769).
T1 construct: purchased Sigma-Aldrich
The data set is described as follows: BSA tryptophan fluorescence quenching. The data set is classed as binding, bovine. The protocol: The protein binding study was carried out using tryptophan fluorescence quenching experiments with BSA. […] Fluorescence emission spectra were recorded between 300 and 500 nm, with excitation at 295 nm.
The quenching constant Ksv was determined based on the Stern–Volmer relationship, as described by Equation (3):I0/I = 1 + kqτ0[Q] = 1 + Ksv[Q](3)
In this equation, I0 and I refer to the fluorescence intensities of BSA measured without and with the quencher (complex), τ0 represents the average fluorescence lifetime of free BSA (∼10^−8 s), and [Q] indicates the quencher concentration.
Parameters such as association binding constant (K) and the number of binding sites per albumin (n) were obtained from Scatchard Equation (4):(ΔI/I0)/[Q] = nK − KΔI/I0(4)
To minimize inner filter, both intensities of fluorescence originating from excitation and emission light absorption and re-absorption were corrected by employing Equation (5); Icor and Iobs are the corrected and observed fluorescence intensities, respectively, and Aex and Aem represent the absorbance of the metal complex at the excitation and emission wavelengths, respectively.Icor = Iobs · […]^(Aex + Aem)/2(5)

In data set [7] the test system is CT-DNA. The data set is described as follows: UV-Vis absorption titration with CT-DNA. Type of data set: binding, calf. The note with it: ΔG = −RT lnKb. As for the experimental part: All DNA-binding studies were conducted in 0.01 M phosphate-buffered saline (PBS, pH 7.40) at 25 °C. […] To eliminate absorbance from CT-DNA, identical amounts of DNA were added to both the test and reference solutions prior to spectral recording.
Intrinsic binding constants (Kb) were calculated using the equation to determine the DNA-binding affinities of the complexes (1):[DNA]/(εa − εf) = [DNA]/(εb − εf) + 1 [Kb(εb − εf)](1)
[DNA] represents the concentration of DNA; apparent extinction coefficient, εa, was calculated as the ratio of the observed absorbance to the concentration of the complex (Aobs/[complex]); and εb and εf correspond to the extinction coefficients of the complex in the fully bound and free forms, respectively. Kb was determined from the ratio of the slope to the intercept obtained from the corresponding linear plots.

Data set [8] concerns CT-DNA. The data set is described as follows: EB–CT-DNA fluorescence quenching. Type of data set: binding, calf. Particulars: EB–CT-DNA 8.52 × 10^−5 M, PBS pH 7.4. The protocol: All samples were prepared in phosphate-buffered saline (PBS, pH 7.4). Stern–Volmer Equation (2) was used to interpret the fluorescence quenching data.
The test system of data set [9] is CT-DNA. More on the design: method as in PMID 25350363. Particulars: cited from earlier work.

T1 sequence (P02769 25-607): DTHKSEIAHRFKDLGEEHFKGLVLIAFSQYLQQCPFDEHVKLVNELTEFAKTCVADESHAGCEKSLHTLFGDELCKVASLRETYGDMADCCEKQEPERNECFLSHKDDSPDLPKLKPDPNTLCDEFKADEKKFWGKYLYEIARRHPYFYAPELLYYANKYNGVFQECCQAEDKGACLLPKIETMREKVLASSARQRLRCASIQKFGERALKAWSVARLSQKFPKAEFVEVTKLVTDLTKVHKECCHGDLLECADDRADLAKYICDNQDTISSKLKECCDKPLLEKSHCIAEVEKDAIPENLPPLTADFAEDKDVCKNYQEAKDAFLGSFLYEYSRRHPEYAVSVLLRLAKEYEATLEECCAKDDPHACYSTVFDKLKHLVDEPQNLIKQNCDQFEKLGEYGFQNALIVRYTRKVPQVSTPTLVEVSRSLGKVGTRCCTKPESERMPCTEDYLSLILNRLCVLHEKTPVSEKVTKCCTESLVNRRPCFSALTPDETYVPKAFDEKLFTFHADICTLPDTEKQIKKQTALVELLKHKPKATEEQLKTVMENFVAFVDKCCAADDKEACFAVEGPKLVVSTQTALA

On to `[NH2][Pt]([NH2])([Cl])[Cl]` [CDDP, cisplatin, reference compound], for which the concentration for half-maximal inhibition (IC50) in data set [1] (MDA-MB-468, 24 h) turned out to be 4.06 ± 0.97 µM; in the data set with mouse lung cancer (LLC1) (LLC1, 24 h), 21.8 ± 1.11 µM; in data set [2], 17.1 ± 1.15 µM; in [3] (4T1, 24 h), 12 ± 1.98 µM; in [3] (4T1, 48 h), 5.17 ± 0.98 µM; in [4] (CT26, 24 h) it was 16.9 ± 1.42 µM. Also, the IC50 amounted to 23.2 ± 1.77 µM in the data set with human lung cancer (A549) (A549, 24 h); 14 ± 1.44 µM in the data set on human lung cancer (A549) (A549, 48 h); 40.5 ± 0.57 µM in [5] (MRC-5, 24 h); 27.4 ± 0.72 µM in data set [5] (MRC-5, 48 h); 63.3 ± 3.21 µM in data set [6] (HCT 116, 24 h); 15.8 ± 1.28 µM in data set [6] (HCT 116, 48 h). Also, the “Selectivity Index (IC50 mMSC or MRC-5/ IC50 Cancer Cell)” value (shortened to “Selectivity Index”) in data set [1] (MDA-MB-468, 24 h) is given as 9.98; in the data set with mouse lung cancer (LLC1) (LLC1, 24 h), 0.79; in [3] (4T1, 24 h), 1.43; in [4] (CT26, 24 h), 1.01; with human lung cancer (A549) (A549, 24 h), 1.74; in the data set on human lung cancer (A549) (A549, 48 h), 1.95. Also, the “Selectivity Index” value in data set [6] (HCT-116, 24 h) is reported as 0.64; in data set [6] (HCT-116, 48 h), 1.73. The “tumor growth compared to the untreated group” value in the data set on 4T1 mammary tumors is on record as “significantly slower”. For the same molecule, the “liver changes (histopathology)” value in the data set on BALB/C female mice is “piecemeal necrosis, focal lytic necrosis, and portal inflammation”.
Take `CSc1ccccc1C(=O)O` [L1, S-methyl derivative of thiosalicylic acid]: the IC50 in [3] (4T1, 48 h) worked out at 443 ± 30.5 µM; in data set [5] (MRC-5, 48 h), 488 ± 41.6 µM.
On to `CCCCSc1ccccc1C(=O)O` [L4, S-butyl derivative of thiosalicylic], for which the IC50 in data set [1] (MDA-MB-468, 48 h) came out at 408 ± 12.7 µM; in data set [3] (4T1, 24 h), 407 ± 35.1 µM; in data set [3] (4T1, 48 h), 417 ± 61.4 µM; in [4] (CT26, 48 h), 368 ± 58.3 µM; with human lung cancer (A549) (A549, 24 h), 494.9 ± 3.58 µM; with human lung cancer (A549) (A549, 48 h) it was 490 ± 22 µM.
As to [Ag2(S-Methyl-Thiosal)2] [C1], the IC50 in data set [1] (MDA-MB-468, 24 h) was 4.19 ± 0.98 µM; in [1] (MDA-MB-468, 48 h), 4.37 ± 0.41 µM; with mouse lung cancer (LLC1) (LLC1, 24 h) it was 39.8 ± 1.07 µM; in the data set with mouse lung cancer (LLC1) (LLC1, 48 h), 32 ± 1.47 µM; in data set [3] (4T1, 48 h), 4 ± 0.95 µM; in the data set on human lung cancer (A549) (A549, 24 h), 58.3 ± 1.91 µM. Also, the 50% inhibitory concentration (IC50) with human lung cancer (A549) (A549, 48 h) is 48.6 ± 1.06 µM; in data set [5] (MRC-5, 24 h), 46.3 ± 1.52 µM; in data set [5] (MRC-5, 48 h) it was 53.2 ± 1.27 µM. Further, the “Selectivity Index” value in [1] (MDA-MB-468, 24 h) came out at 11.05; in data set [1] (MDA-MB-468, 48 h), 12.18; with human lung cancer (A549) (A549, 24 h) it was 0.79; with human lung cancer (A549) (A549, 48 h) it was 1.10. The “kq (quenching rate constant)” value on BSA (BSA 2 µM) is recorded as “(1.7 ± 0.1) × 10^13 M^−1 s^−1”. The “Ksv (Stern–Volmer constant)” value at BSA (BSA 2 µM, λex 295 nm) is given as “(1.7 ± 0.1) × 10^5 M^−1”. Moreover, the “K (binding constant)” value at BSA (Scatchard equation) is recorded as “(1.7 ± 0.1) × 10^5 M^−1”. Besides, the “n (number of binding sites)” value on BSA (Scatchard equation) is on record as 0.8. Moreover, in the data set on CT-DNA [7], the “ΔG (Gibbs free energy)” value was -6.64 kcal/mol. Further, the “Ksv EB (Stern–Volmer constant)” value in the data set on CT-DNA [8] is given as “(6.0 ± 0.1) × 10^3 M^−1”.
In the case of `CC[n+]1c(-c2ccccc2)c2cc(N)ccc2c2ccc(N)cc21.[Br-]` [ethidium bromide, 3,8-diamino-5-ethyl-6-phenylphenanthridinium bromide], in the data set on CT-DNA [9], the Kb entry is listed as “(1.23 ± 0.07) × 10^5 M^−1”.
Regarding `CCCSc1ccccc1C(=O)O` [L3, S-propyl derivative of thiosalicylic acid], the 50% inhibitory concentration (IC50) stood at 500 ± 30.5 µM in [3] (4T1, 48 h) and 500 ± 47.3 µM in the data set with human lung cancer (A549) (A549, 48 h).
With `CCSc1ccccc1C(=O)O` [L2, S-ethyl derivative of thiosalicylic], the concentration for half-maximal inhibition (IC50) worked out at 500 ± 7.6 µM in data set [3] (4T1, 48 h); 465 ± 39.5 µM in data set [4] (CT26, 48 h); 384 ± 20.5 µM in data set [5] (MRC-5, 48 h).
